# Assay results taken from US9745310B2 (SK BIOPHARMACEUTICALS CO., LTD., priority 2015, dated 2017).
# Target: human mGluR5 receptor (Homo sapiens (Human), UniProt P41594)
# Experiment: Calcium influx assay based on fluorescence (mGluR5 PAM activity)
# Conditions: human mGluR5 receptor-overexpressed HEK293 cell line; L-glutamate EC20; Fluo-4, FLIPR
# Description: Efficacy as a positive allosteric modulator (PAM) of mGluR5 of the compounds of the Examples was tested as follows:
# Calcium Influx Assay Based on Fluorescence
# Ca^2+ (calcium) influx assay is an experiment for measuring the activity of a positive allosteric modulator of mGluR5 receptor in which human mGluR5 receptor-overexpressed HEK293 cell line is used. The day before the experiment, cells were prepared in a cell culture medium (DMEM, 5% FBS) with the density of 80,000/well, and 100 μl of cells were dispensed into each well of a poly-D-lysine-coated 96-well plate. Cells were incubated in a 5% CO2, 37° C. incubator. The next day, the cell culture medium was removed from the plate, and 100 μl of 1× Fluo-4 calcium indicator diluted with a buffer (1× Hank's balanced salt solution, 20 mM HEPES, 2.5 mM probenecid) were added to each well and incubated at 37° C. for 1 hour. The compound stock solutions were prepared in 100% DMSO, and the compounds were serially diluted with a ¼ dilution to 6 or 7 concentrations (final concentration was 10 μM to 10 nM). The diluted compound solutions were added to the plate with 0.1 to 0.2% of final DMSO concentration. 1 hour after the addition of Fluo-4 calcium indicator, L-glutamate (EC20 concentration) and the test compound solutions were added to the plate, and Ca^2+ reaction was then measured by FLIPR at room temperature. The activity of the compounds was standardized on the basis of the results of maximum value-minimum value of fluorescent reaction, and the activity value was calculated on the basis that no activity on glutamate EC20 is 0% and the reaction to glutamate maximum value is 100%.
# Chain of human mGluR5 receptor (P41594 21-1212): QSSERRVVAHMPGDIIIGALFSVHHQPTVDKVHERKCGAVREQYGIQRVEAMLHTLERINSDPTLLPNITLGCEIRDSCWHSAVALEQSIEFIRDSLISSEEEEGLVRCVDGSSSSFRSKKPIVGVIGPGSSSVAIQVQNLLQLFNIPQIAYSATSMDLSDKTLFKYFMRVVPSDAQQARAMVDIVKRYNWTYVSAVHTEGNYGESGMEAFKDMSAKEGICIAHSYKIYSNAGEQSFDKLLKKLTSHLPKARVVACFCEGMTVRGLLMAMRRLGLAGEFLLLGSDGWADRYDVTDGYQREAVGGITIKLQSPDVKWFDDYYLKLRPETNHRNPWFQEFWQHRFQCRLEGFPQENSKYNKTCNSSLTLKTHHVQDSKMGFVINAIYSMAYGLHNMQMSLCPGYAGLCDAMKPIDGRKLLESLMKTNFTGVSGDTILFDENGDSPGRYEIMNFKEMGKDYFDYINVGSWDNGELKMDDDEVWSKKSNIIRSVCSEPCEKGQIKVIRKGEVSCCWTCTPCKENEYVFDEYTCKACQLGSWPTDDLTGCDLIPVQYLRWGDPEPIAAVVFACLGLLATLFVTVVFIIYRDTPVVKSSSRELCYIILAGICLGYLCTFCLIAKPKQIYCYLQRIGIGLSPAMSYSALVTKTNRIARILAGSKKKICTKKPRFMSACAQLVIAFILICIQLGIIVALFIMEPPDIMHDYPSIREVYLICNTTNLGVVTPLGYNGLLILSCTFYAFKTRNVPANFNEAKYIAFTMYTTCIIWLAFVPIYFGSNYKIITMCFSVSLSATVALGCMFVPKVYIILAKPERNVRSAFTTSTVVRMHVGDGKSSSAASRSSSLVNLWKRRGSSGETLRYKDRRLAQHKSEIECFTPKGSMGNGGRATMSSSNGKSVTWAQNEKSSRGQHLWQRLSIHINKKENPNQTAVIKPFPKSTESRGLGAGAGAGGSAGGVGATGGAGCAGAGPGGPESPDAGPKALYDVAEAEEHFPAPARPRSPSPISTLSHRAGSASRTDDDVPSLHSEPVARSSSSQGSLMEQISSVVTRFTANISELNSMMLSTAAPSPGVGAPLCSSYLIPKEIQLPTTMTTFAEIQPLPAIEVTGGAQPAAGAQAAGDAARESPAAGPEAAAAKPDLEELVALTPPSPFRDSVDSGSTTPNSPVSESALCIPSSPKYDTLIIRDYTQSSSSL
row,Structure (SMILES),EC50
1,"Nc1cc(Cl)ccc1-c1cnc2nc(COc3ccc(F)cc3)cn2c1 [Example 75, 5-chloro-2-[2-[(4-fluorophenoxy)methyl]imidazo[1,2-a]pyrimidin-6-yl]aniline]",100 to 500 nM
2,"Cc1ccc(N)c(-c2cnc3nc(COc4ccc(F)cc4)cn3c2)c1 [Example 76, 2-[2-[(4-fluorophenoxy)methyl]imidazo[1,2-a]pyrimidin-6-yl]-4-methyl-aniline]",100 to 500 nM
3,"Nc1cc(F)ccc1-c1cnc2nc(COc3ccc(F)cc3)cn2c1 [Example 77, 5-fluoro-2-[2-[(4-fluorophenoxy)methyl]imidazo[1,2-a]pyrimidin-6-yl]aniline]",100 to 500 nM
4,"Cc1ccncc1-c1cnc2nc(COc3ccc(F)cc3)cn2c1 [Example 78, 2-[(4-fluorophenoxy)methyl]-6-(4-methyl-3-pyridyl)imidazo[1,2-a]pyrimidine]",100 to 500 nM
5,"Fc1cccc(OCc2cn3cc(-c4ccnc(F)c4)cnc3n2)c1 [Example 79, 2-[(3-fluorophenoxy)methyl]-6-(2-fluoro-4-pyridyl)imidazo[1,2-a]pyrimidine]",100 to 500 nM
6,"Fc1cccc(OCc2cn3cc(-c4ccc(F)nc4)cnc3n2)c1 [Example 81, 2-[(3-fluorophenoxy)methyl]-6-(6-fluoro-3-pyridyl)imidazo[1,2-a]pyrimidine]",100 to 500 nM
7,"Fc1cccc(OCc2cn3cc(-c4cccnc4F)cnc3n2)c1 [Example 82, 2-[(3-fluorophenoxy)methyl]-6-(2-fluoro-3-pyridyl)imidazo[1,2-a]pyrimidine]",100 to 500 nM
8,"Fc1ccc(OCc2cn3cc(-c4cnc(F)c(F)c4)cnc3n2)cc1 [Example 83, 6-(5,6-difluoro-3-pyridyl)-2-[(4-fluorophenoxy)methyl]imidazo[1,2-a]pyrimidine]",100 to 500 nM
9,"COc1ccc(-c2cnc3nc(COc4ccc(F)cc4)cn3c2)cc1N [Example 84, 5-[2-[(4-fluorophenoxy)methyl]imidazo[1,2-a]pyrimidin-6-yl]-2-methoxy-aniline]",500 to 1000 nM
10,"Fc1ccc(OCc2cn3cc(-c4ccc(F)cn4)cnc3n2)cc1 [Example 85, 2-[(4-fluorophenoxy)methyl]-6-(5-fluoro-2-pyridyl)imidazo[1,2-a]pyrimidine]",100 to 500 nM
11,"COc1ccc(-c2cnc3nc(COc4ccc(F)cc4)cn3c2)nc1 [Example 86, 2-[(4-fluorophenoxy)methyl]-6-(5-methoxy-2-pyridyl)imidazo[1,2-a]pyrimidine]",100 to 500 nM
12,"Fc1ccc(OCc2cn3cc(-c4cnccc4Cl)cnc3n2)cc1 [Example 87, 6-(4-chloro-3-pyridyl)-2-[(4-fluorophenoxy)methyl]imidazo[1,2-a]pyrimidine]",500 to 1000 nM
13,"Fc1ccc(OCc2cn3cc(-c4cncc(Cl)c4)cnc3n2)cc1 [Example 88, 6-(5-chloro-3-pyridyl)-2-[(4-fluorophenoxy)methyl]imidazo[1,2-a]pyrimidine]",100 to 500 nM
14,"COc1cncc(-c2cnc3nc(COc4ccc(F)cc4)cn3c2)c1 [Example 89, 2-[(4-fluorophenoxy)methyl]-6-(5-methoxy-3-pyridyl)imidazo[1,2-a]pyrimidine]",500 to 1000 nM
15,"Oc1ccc(-c2cnc3nc(COc4ccc(F)cc4)cn3c2)cn1 [Example 90, 5-[2-[(4-fluorophenoxy)methyl]imidazo[1,2-a]pyrimidin-6-yl]pyridin-2-ol]",100 to 500 nM
16,"Cc1ccc(-c2cnc3nc(COc4ccc(F)cc4)cn3c2)cn1 [Example 92, 2-[(4-fluorophenoxy)methyl]-6-(6-methyl-3-pyridyl)imidazo[1,2-a]pyrimidine]",100 to 500 nM
17,"Fc1ccc(-c2cnc3nc(COc4cccc(F)c4)cn3c2)nc1 [Example 93, 2-[(3-fluorophenoxy)methyl]-6-(5-fluoro-2-pyridyl)imidazo[1,2-a]pyrimidine]",100 to 500 nM
18,"Fc1cccc(OCc2cn3cc(-c4ccc(F)cc4C(F)(F)F)cnc3n2)c1 [Example 94, 2-[(3-fluorophenoxy)methyl]-6-[4-fluoro-2-(trifluoromethyl)phenyl]imidazo[1,2-a]pyrimidine]",100 to 500 nM
